Test results reported in publication PMC10428205, “Cytotoxicity of Ruthenium(II) Arene Complexes Containing Functionalized Ferrocenyl β-Diketonate Ligands” (Organometallics, 2023).
Read-outs that look alike come from different tables or passages of the source.

What was measured:
[1] = tested on: MIA PaCa-2; experiment: 24 and 48 h chemosensitivity (MTT, with recovery period); type: cell-based, human
Method: (§1) LogP = Log ( [C]final ) Eqn1
(§2) 96 h Chemosensitivity Studies
(§3) In vitro chemosensitivity tests were performed at both the University of Huddersfield and the Institute of Cancer Therapeutics, Bradford, in a sterile Class II Biological Safety Cabinet fitted with a HEPA filtered laminar airflow.
(§4) Cellular assays were conducted against human pancreatic carcinoma (MIA PaCa-2), human colorectal carcinoma p53-wildtype (HCT116 p53+/+), and human non-cancerous epithelial retinal cells (ARPE-19). The ARPE-19 cells were obtained from the American Type Culture Collection and provided by the University of Huddersfield. All cell lines were routinely maintained as monolayer cultures in appropriate complete medium and maintained in either T-25 or T-75 flasks at 37 °C and 5% CO2. MIA PaCa-2 and ARPE-19 cells were cultured in high glucose DMEM-F12 medium containing 10% foetal calf serum, and HCT116 p53+/+ was cultured in RPMI 1640 supplemented with 10% foetal calf serum. All medium was supplemented with sodium pyruvate (1 mM) and L-glutamine (2 mM), and prior to chemosensitivity studies, cell monolayers were passaged using Trypsin-EDTA and diluted to a concentration of 1 x 10^4 cells/mL. All assays were conducted using 96-well plates, in which 100 mL of the 1 x 10^4 cells/mL cell suspension was added to each well and incubated for 24 h at 37 °C and 5% CO2. After 24 h, 100 mL of drug dilutions (fresh 100 mM stock solutions in DMSO) in media were added to the plates and then incubated for a further 96 h at 37°C and 5% CO2 (48 h + 48 h recovery period were used for the shorter exposures with MIA PaCa-2 cells only). After 96 h, 20 mL MTT (3-(4,5-dimethylthiazol-2-yl)-2,5-diphenyltetrazolium bromide, 5 mg/mL) was added to each well and incubated for 3 h at 37 °C and 5% CO2. All solutions were then removed from the 96-well plates via pipette and 150 mL of DMSO added to each well to dissolve the purple formazan crystals. After mixing well, the absorbance of each well was measured at 540 nm using a ThermoFisher Multiskan FC spectrophotometer microplate reader. Using the blank and 100% cell controls, the % cell viability was determined [(abs. of compound containing wells – abs. media wells)/(abs. 100% cell suspension well control)] and from this the % cell death (100%- % cell viability) was calculated. On a logarithmic scale, the percentage cell death was plotted against the concentration of compound, and from this the half maximal inhibitory concentration (IC50) value was determined. Each of the experiments were performed in triplicate with mean values being stated as the IC50 ± Standard Deviation (SD).
24 and 48 h Chemosensitivity Studies
The same experimental protocol described for the 96 h MTT assay was used, and the MIA PaCa-2 cells were incubated for either 24 or 48 h, with a 72 or 48 h recovery period respectively. […]
All assays were conducted in triplicate.

[2] = tested on: ARPE-19; experiment: 96 h MTT chemosensitivity assay, normal cells; type: cell-based, human; details: normal retinal epithelial cells, ± SD, read-out: IC50 against ARPE-19
Method: as §1, §2, §3
as §4, with “After 24 h, 100 mL of drug dilutions (fresh 100 mM stock solutions in DMSO) in media were added to the plates and then incubated for a further 96 h at 37°C and 5% CO2 (48 h + 48 h recovery period were used for the shorter exposures with MIA PaCa-2 cells only). After 96 h, 20 mL MTT (3-(4,5-dimethylthiazol-2-yl)-2,5-diphenyltetrazolium bromide, 5 mg/mL) was added to each well and incubated for 3 h at 37 °C and 5% CO2. All solutions were then removed from the 96-well plates via pipette and 150 mL of DMSO added to each well to dissolve the purple formazan crystals.” left out, “Each of the experiments were performed in triplicate with mean values being stated as the IC50 ± Standard Deviation (SD).” left out

[3] = MIA PaCa-2, 24 h exposure + 72 h recovery, read-out: IC50 values ± SD, 24 h
[4] = MIA PaCa-2, 48 h exposure + 48 h recovery, read-out: IC50 values ± SD, 48 h

IC50 [1, 3] [µM]	IC50 [1, 4] [µM]	Structure (SMILES)	IC50 [2] [µM]
76 ± 3	61 ± 1	CC(O)=CC(=O)[c-]1cccc1.[Fe+2].c1cc[cH-]c1 [Complex L1]	–
> 100	68 ± 3	O=C(C=C(O)c1ccccc1)[c-]1cccc1.[Fe+2].c1cc[cH-]c1 [Complex L2]	–
> 100	76 ± 3	[NH2][Pt]([NH2])([Cl])[Cl] [CDDP, cisplatin, reference compound]	6 ± 1
> 100	20 ± 1	O=C(C=C(O)C(F)(F)F)[c-]1cccc1.[Fe+2].c1cc[cH-]c1 [Complex L7]	–
